Test results: ChEMBL document CHEMBL5370554, “Discovery of a first-in-class Aurora A covalent inhibitor for the treatment of triple negative breast cancer” (Eur J Med Chem, 2023)

Columns and labels:
MDA-MB-231 [1] = assay: Induction of apoptosis in human MDA-MB-231 cells assessed as necrotic cells at 2.5 uM incubated for 24 hrs by Annexin V-FITC staining based flow cytometry (Rvb= 1.67%); assay type: functional
MDA-MB-231 [2] = assay: Induction of apoptosis in human MDA-MB-231 cells assessed as early apoptotic cells at 5 uM incubated for 24 hrs by Annexin V-FITC staining based flow cytometry (Rvb= 3.3%); assay type: functional
[3] = Toxicity in BALB/c nude mouse xenografted with human MDA-MB-231 cells assessed as body weight change at 15 mg/kg,ip every 2days for 20 days; assay type: organism-based; details: in vivo, 480 h, time 20 day
[4] = Toxicity in BALB/c nude mouse xenografted with human MDA-MB-231 cells assessed as inflammatory cell infiltration in heart at 15 mg/kg,ip every 2days for 20 days by Hematoxylin and Eosin staining based microscopy; assay type: organism-based; details: in vivo, 480 h, time 20 day
[5] = Toxicity in BALB/c nude mouse xenografted with human MDA-MB-231 cells assessed as inflammatory cell infiltration in lung at 15 mg/kg,ip every 2days for 20 days by Hematoxylin and Eosin staining based microscopy; assay type: organism-based; details: in vivo, 480 h, time 20 day

In the case of `C=CC(=O)Nc1ccc(-c2nc(Nc3cc(C)[nH]n3)c3ccc(N4CCN(C)CC4)cc3n2)cc1`, the Activity (MDA-MB-231 [1]) is reported as 1.14%, the Activity (MDA-MB-231 [2]) is reported as 28.6% and the Activity [3] is reported as “Non-Toxic”. The Activity [4] was “Non-Toxic” and the Activity [5] was “Non-Toxic”.
